In patent US5424314A, “20,21-dinoreburnamenines” (Roussel-Uclaf, priority 1990, dated 1995):
Structures can show the parent of a compound that is named as a salt.

Experiments:
[1] = test system: alpha 2 adrenergic receptors; test: Affinity for alpha 2 adrenergic receptors (H^3 rauwolscine displacement, cortex homogenate); type: binding, male rate (rat) brain cortices; conditions: H^3 rauwolscine 0.15 nM, 45 minutes at 25° C., pH 7.4; concentrations inhibiting 50% of specific fixation compared with phentolamine
Description: 2 Affinity for Alpha 2 Adrenergic Receptors
10 cortices removed from the brains of male rate weighing on average 150 g were homogenized in 90 ml of 0.32M sucrose. After centrifuging the homogenized mixture at 1,000 g for 10 minutes at 0° C., the supernatant was centrifuged at 30,000 g for 10 minutes at 0° C.+4° C. The deposit was suspended in 240 ml of 50 mM Tris HCl pH 7.7 buffer and centrifuged at 30,000 g for 15 minutes at 0° C.+4° C. The new deposit was suspended in 480 ml of 50 mM NaKPO4 pH 7.4 buffer. Then 2 ml of suspension were incubated for 45 minutes at 25° C. in the presence of H^3 rauwolscine it a concentration of 0.15 nM:
i) on its own, ii) with increasing concentrations of the product under test or, iii) to determine the non-specific fixation, with non-radioactive phentolamine at a concentration of 10^-5 M.
The incubated suspensions were filtered on Whatman GF/C and the filters were washed three times with 5 ml of NaKPO4 pH 7.4 buffer at 0° C. The radioactivity of the filters was measured by liquid scintillation. The affinity of the product tested for the alpha 2 adrenergic receptors was determined relative to phentolamine as reference product.
CD=concentration of phentolamine inhibiting 50% of the specific fixation of H^3 rauwolscine;
CX=concentration of the product tested inhibiting 50% of the specific fixation of H^3 rauwolscine. […]

[2] = test system: mouse; test: Acute toxicity: lethal dose LD0 after oral administration to a mouse; type: in vivo
Description: The lethal doses LD0 of the different compounds tested were evaluated after oral administration to a mouse.

[3] = test system: mice of CD1, Charles River type; test: Hypobaric anoxia: survival time of mice subjected to a lethal hypoxic atmosphere; type: in vivo; conditions: relative to vehicle control animals (70 to 80 seconds); male CD1 mice, depression of 620 mm Hg
From the text: The test consisted of measuring the survival time of mice subjected to a lethal hypoxic atmosphere in which male mice of CD1, Charles River type, weighing 20 to 25 grams, were placed individually in a 2 liter enclosure in which a depression of 620 mm Hg was brought about by means of a vacuum pump, according to the following kinetics: […]
______________________________________
The survival time was the time between the start of the depression (T0) and the last respiratory movement; it was on the order of 70 to 80 seconds on the control animals. The results are given as a percentage of the increase in the survival time relative to the control animals who received the vehicle.

Row | SMILES | RBA (relative affinity, relative to phentolamine as reference product) [1] | LD0 (maximum dose which did not cause any mortality in 8 days) [2] | % increase of survival time [3]
1 | C=Cc1ccc2c3c4n(c2c1)C=CC1CCCN(CC3)C41 (racemic) [Example 1, [16 α(±)]-11-ethenyl-20,21-dinoreburnamenine maleate] | 31 | ≥ 400 | –
2 | CC(=O)c1ccc2c3c4n(c2c1)C=CC1CCCN(CC3)C41 (racemic) [Example 4, [16α(±)]-11-acetyl-20,21-dinoreburnamenine acid maleate] | – | 100 | +22%
3 | CC(O)c1ccc2c3c4n(c2c1)C=CC1CCCN(CC3)C41 (racemic) [Example 5] | – | 100 | +21%
4 | NC(=O)c1ccc2c3c4n(c2c1)C=CC1CCCN(CC3)C41 (racemic) [Example 10, [16α(±)]-20,21-dinoreburnamenine-11-carboxamide] | – | – | +22%
